Test results taken from patent US7064120B2, “Tricyclic pyridyl carboxamides and derivatives thereof tocolytic oxytocin receptor antagonists” (Wyeth, priority 2001, dated 2006).

Target: T1, human vasopressin V1a receptor subtype (Homo sapiens, UniProt P37288)
T1 construct: host or cells: CHO cells, stably transfected (pZeoSV vector for the Thibonnier line)
Assay: Vasopressin binding in CHO cell membranes expressing human vasopressin V1a subtype receptors ([3H]Manning ligand radioligand binding)
Settings: 100 nM
Experimental: Vasopressin Binding in Chinese Hamster Ovary Cell Membranes Expressing Human Vasopressin V1a Subtype Receptors
The trypsin is removed by aspiration and the cells dislodged by tapping. Cell Culture medium (e.g. 30 mL for 1:30 split) is immediately added and mixed well to inactivate trypsin. 1 mL of detached cells is added to new culture flasks containing fresh cell culture medium (e.g., into 25 mL per T-150 flask), and mixed gently. The cells are incubated at 37° C. in 5% CO2. The medium is changed at 3 to 4 days interval (or as appropriate). […] All steps are done under sterile conditions.
The cells are washed twice gently with Hank's Balanced Salt solution (e.g,. use 10 mL per T-150 flask). […] The contents are transferred to centrifuge tubes (50 mL) kept in an ice bath. All subsequent steps are done at 4° C. The tubes are centrifuged at 300×g for 15 min (1380 rpm on SORVAL, Model RT6000D, using the rotor for 50 mL tubes). The supernatant is discarded and the cells suspended in homogenizing buffer(10 mM Tris-HCl containing 0.25 M sucrose and 1 mM EDTA, pH 7.4) ensuring that the volume of the buffer is about ten times the volume of the cell pellet. The cells are pooled into a centrifuge tube (50 mL) and homogenized with Polytron at setting 6 for 10 sec. The homogenate is transferred into a Potter-Elvjehm homogenizer and homogenized with 3 strokes. The homogenate is centrifuged at 1500×g for 10 min at 4° C. (3100 rpm using SORVAL, model RT6000D, using the rotor for 50 mL tubes). The pellet is discarded. The supernatant is centrifuged at 100,000×g for 60 min. at 4° C. (Beckman L8-80M ultracentrifuge; spin at 37,500 rpm with rotor type 70 Ti for 50 mL tubes; 38,000 rpm with type 80Ti for 15 mL tubes; or 35,800 rpm with rotor type 45Ti). The supernantant is discarded and the pellet suspended in 3 to 4 mL of Tris buffer (50 mM TRIS-HCl, pH 7.4). The protein content is estimated by the Bradford or Lowry method. The volume of the membrane suspension is adjusted with the membrane buffer (50 mM Tris-HCl containing 0.1% BSA and 0.1 mM PMSF) to give 3.0 mg/mL (or as appropriate) of protein. The membranes are aliquoted and stored at −70° C.
In wells of a 96-well format microtiter plate, is added 90, 110 or 130 μL (to make up a final volume of 200 μL) of assay buffer containing 50 mM of Tris-HCl (pH 7.4), BSA (heat inactivated, protease-free), […], 1 mg % aprotinin, 1 mg % leupeptin, 2 mg % 1,10-phenanthroline, 10 mg % trypsin inhibitor, and 0.1 mM PMSF. The inhibitors are added on the day of the experiment. The components are mixed at room temperature, and then kept in ice bath following adjustment of the pH to 7.4. […] 20 μL of 50% DMSO is added for Manning and other peptide ligands and the assay buffer volume is adjusted accordingly. To each well is added 50 μL of frozen membrane suspension thawed immediately prior to use and diluted in the assay buffer to the required concentration (equivalent to 25 to 50 μg of protein/well as needed). 20 μL of 8 nM [^3H]Manning ligand in the assay buffer, prepared just before use, is added, and incubated at room temperature for 60 min. shaking the plate on a mechanical shaker for the first 15 min. The incubation is stopped by rapid filtration of the plate contents followed by wash with ice-cold buffer (50 mM Tris-HCl, pH 7.4) using a cell harvester (Tomtek and Printed filtermat-B filter paper). The filter paper is thoroughly dried (7–12 min. in a microwave oven) and impregnated with MeltiLex B/H melt-on scintillation wax sheets and the radioactivity counted in a betaplate scintillation counter.
Binding data is either reported as percent inhibition at a certain concentration or if an IC50 was calculated, as a nanomolar concentration.

T1 sequence (P37288 whole entry): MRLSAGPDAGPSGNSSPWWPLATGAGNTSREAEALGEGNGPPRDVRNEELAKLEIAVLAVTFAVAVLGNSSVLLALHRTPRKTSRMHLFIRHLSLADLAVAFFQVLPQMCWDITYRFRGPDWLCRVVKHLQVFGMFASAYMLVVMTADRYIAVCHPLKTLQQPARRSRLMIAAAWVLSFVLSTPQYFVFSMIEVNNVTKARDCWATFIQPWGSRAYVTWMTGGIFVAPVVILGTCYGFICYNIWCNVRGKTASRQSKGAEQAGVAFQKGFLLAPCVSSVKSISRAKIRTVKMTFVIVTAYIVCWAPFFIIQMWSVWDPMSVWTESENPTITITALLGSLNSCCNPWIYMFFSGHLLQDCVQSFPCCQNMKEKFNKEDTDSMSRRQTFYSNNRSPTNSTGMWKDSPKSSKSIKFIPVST

| Compound | inhibition at 0.1 µM |
| --- | --- |
| COc1ccccc1-c1ccc(C(=O)N2Cc3ccc(C(=O)NCc4ccccn4)n3Cc3ccccc32)cc1C [Example 24, 10-[(2′-Methoxy-2-methyl-[1,1′-biphenyl]-4-yl)carbonyl]-N-(2-pyridinylmethyl)-10,11-dihydro-5H-pyrrolo[2,1-c][1,4]benzodiazepine-3-carboxamide] | 7% |
| COc1cccc(-c2ccc(C(=O)N3Cc4ccc(C(=O)NCc5ccccn5)n4Cc4ccccc43)cc2C)c1 [Example 25, 10-[(3′-Methoxy-2-methyl-[1,1′-biphenyl]-4-yl)carbonyl]-N-(2-pyridinylmethyl)-10,11-dihydro-5H-pyrrolo[2,1-c][1,4]benzodiazepine-3-carboxamide] | 21% |
| COc1ccccc1-c1ccc(C(=O)N2Cc3ccc(C(=O)NCc4ccccn4)n3Cc3ccccc32)cc1 [Example 26, 10-[(2′-Methoxy-[1,1′-biphenyl]-4-yl)carbonyl]-N-(2-pyridinylmethyl)-10,11-dihydro-5H-pyrrolo[2,1-c][1,4]benzodiazepine-3-carboxamide] | 17% |
| Cc1ccccc1-c1ccc(C(=O)N2Cc3ccc(C(=O)NCc4ccccn4)n3Cc3ccccc32)cc1 [Example 27, 10-[(2′-Methyl-[1,1′-biphenyl]-4-yl)carbonyl]-N-(2-pyridinylmethyl)-10,11-dihydro-5H-pyrrolo[2,1-c][1,4]benzodiazepine-3-carboxamide] | 20% |
| COc1cc(C(=O)N2Cc3ccc(C(=O)NCc4ccccn4)n3Cc3ccccc32)ccc1-c1ccccc1C [Example 28, 10-[(2-Methoxy-2′-methyl-[1,1′-biphenyl]-4-yl)carbonyl]-N-(2-pyridinylmethyl)-10,11-dihydro-5H-pyrrolo[2,1-c][1,4]benzodiazepine-3-carboxamide] | 28% |
| COc1cc(-c2ccccc2C)c(Cl)cc1C(=O)N1Cc2ccc(C(=O)NCc3ccccn3)n2Cc2ccccc21 [Example 29, 10-[(6-Chloro-3-methoxy-2′-methyl-[1,1′-biphenyl]-4-yl)carbonyl]-N-(2-pyridinylmethyl)-10,11-dihydro-5H-pyrrolo[2,1-c][1,4]benzodiazepine-3-carboxamide] | 0% |
| COc1cccc(-c2cc(OC)c(C(=O)N3Cc4ccc(C(=O)NCc5ccccn5)n4Cc4ccccc43)cc2Cl)c1 [Example 30, 10-[(6-Chloro-3,3′-dimethoxy-[1,1′-biphenyl]-4-yl)carbonyl]-N-(2-pyridinylmethyl)-10,11-dihydro-5H-pyrrolo[2,1-c][1,4]benzodiazepine-3-carboxamide] | -7% |
| COc1cc(C(=O)N2Cc3ccc(C(=O)NCc4ccccn4)n3Cc3ccccc32)ccc1-c1cccc2ccccc12 [Example 31, 10-[3-Methoxy-4-(naphthalen-1-yl)benzoyl]-N-(2-pyridinylmethyl)-10,11-dihydro-5H-pyrrolo[2,1-c][1,4]benzodiazepine-3-carboxamide] | 6% |
| COc1ccccc1-c1ccc(C(=O)N2Cc3ccc(C(=O)NCc4ccccn4)n3Cc3ccccc32)cc1OC [Example 32, 10-[(2,2′-Dimethoxy-[1,1′-biphenyl]-4-yl)carbonyl]-N-(2-pyridinylmethyl)-10,11-dihydro-5H-pyrrolo[2,1-c][1,4]benzodiazepine-3-carboxamide] | 13% |
| COc1cccc(-c2ccc(C(=O)N3Cc4ccc(C(=O)NCc5ccccn5)n4Cc4ccccc43)cc2OC)c1 [Example 33, 10-[(2,3′-Dimethoxy-[1,1′-biphenyl]-4-yl)carbonyl]-N-(2-pyridinylmethyl)-10,11-dihydro-5H-pyrrolo[2,1-c][1,4]benzodiazepine-3-carboxamide] | 23% |
| O=C(NCc1ccccn1)c1ccc2n1Cc1ccccc1N(C(=O)c1ccc(-c3cccc4ccccc34)cc1Cl)C2 [Example 34, 10-[2-Chloro-4-(naphthalen-1-yl)benzoyl]-N-(2-pyridinylmethyl)-10,11-dihydro-5H-pyrrolo[2,1-c][1,4]benzodiazepine-3-carboxamide] | 5% |
| Cc1cc(C(=O)N2Cc3ccc(C(=O)NCc4ccccn4)n3Cc3ccccc32)ccc1-c1ccccc1C(F)(F)F [Example 35, 10-{[2-Methyl-2′-trifluoromethyl-[1,1′-biphenyl]-4-yl]carbonyl}-N-(2-pyridinylmethyl)-10,11-dihydro-5H-pyrrolo[2,1-c][1,4]benzodiazepine-3-carboxamide] | 4% |
| COc1ccccc1-c1ccc(C(=O)N2Cc3ccc(C(=O)NCc4cccnc4)n3Cc3ccccc32)cc1C [Example 36, 10-[(2′-Methoxy-2-methyl-[1,1′-biphenyl]-4-yl)carbonyl]-N-(3-pyridinylmethyl)-10,11-dihydro-5H-pyrrolo[2,1-c][1,4]benzodiazepine-3-carboxamide] | -3% |
| Cc1ccccc1-c1ccc(C(=O)N2Cc3ccc(C(=O)NCc4cccnc4)n3Cc3ccccc32)cc1C [Example 37, 10-[(2,2′-Dimethyl-[1,1′-biphenyl]-4-yl)carbonyl]-N-(3-pyridinylmethyl)-10,11-dihydro-5H-pyrrolo[2,1-c][1,4]benzodiazepine-3-carboxamide] | 12% |
| COc1cccc(-c2ccc(C(=O)N3Cc4ccc(C(=O)NCc5cccnc5)n4Cc4ccccc43)cc2C)c1 [Example 38, 10-[(3′-Methoxy-2-methyl-[1,1′-biphenyl]-4-yl)carbonyl]-N-(3-pyridinylmethyl)-10,11-dihydro-5H-pyrrolo[2,1-c][1,4]benzodiazepine-3-carboxamide] | 0% |
| COc1ccccc1-c1ccc(C(=O)N2Cc3ccc(C(=O)NCc4cccnc4)n3Cc3ccccc32)cc1 [Example 39, 10-[(2′-Methoxy-[1,1′-biphenyl]-4-yl)carbonyl]-N-(3-pyridinylmethyl)-10,11-dihydro-5H-pyrrolo[2,1-c][1,4]benzodiazepine-3-carboxamide] | 10% |
| Cc1ccccc1-c1ccc(C(=O)N2Cc3ccc(C(=O)NCc4cccnc4)n3Cc3ccccc32)cc1 [Example 40, 10-[(2′-Methyl-[1,1′-biphenyl]-4-yl)carbonyl]-N-(3-pyridinylmethyl)-10,11-dihydro-5H-pyrrolo[2,1-c][1,4]benzodiazepine-3-carboxamide] | 15% |
| COc1cc(C(=O)N2Cc3ccc(C(=O)NCc4cccnc4)n3Cc3ccccc32)ccc1-c1ccccc1C [Example 41, 10-[(2-Methoxy-2′-methyl-[1,1′-biphenyl]-4-yl)carbonyl]-N-(3-pyridinylmethyl)-10,11-dihydro-5H-pyrrolo[2,1-c][1,4]benzodiazepine-3-carboxamide] | 20% |
| COc1cc(-c2ccccc2C)c(Cl)cc1C(=O)N1Cc2ccc(C(=O)NCc3cccnc3)n2Cc2ccccc21 [Example 42, 10-[(6-Chloro-3-methoxy-2′-methyl-[1,1′-biphenyl]-4-yl)carbonyl]-N-(3-pyridinylmethyl)-10,11-dihydro-5H-pyrrolo[2,1-c][1,4]benzodiazepine-3-carboxamide] | -11% |
| COc1cccc(-c2cc(OC)c(C(=O)N3Cc4ccc(C(=O)NCc5cccnc5)n4Cc4ccccc43)cc2Cl)c1 [Example 43, 10-[(6-Chloro-3,3′-dimethoxy-[1,1′-biphenyl]-4-yl)carbonyl]-N-(3-pyridinylmethyl)-10,11-dihydro-5H-pyrrolo[2,1-c][1,4]benzodiazepine-3-carboxamide] | -6% |
